Results: patent US9981972B2, “N-hydroxy bicyclic hydantoin carbamates as tools for identification of serine hydrolase targets” (ABIDE THERAPEUTICS, INC., priority 2014, dated 2018)

Experiments:
[1] = tested on: other SHs (anti-targets) in mouse tissues; experiment: Inhibition by gel-based competitive ABPP in vivo, other SHs; conditions: 4 h
Method: (§1) In this assay, test compounds were administered to mice. Mice were sacrificed, and their tissues harvested, homogenized, and the soluble fractions isolated, reacted with FP-Rh, and separated by SDS-PAGE as described above.
(§2) Protocol Summary: Purpose-bred 3-4 month old male C57BL6 laboratory mice were i.p. administered test compound (0.5-50 mg/kg in 18:1:1 saline:PEG-40-castor oil:EtOH vehicle solution, 10 μL/g mouse weight) or vehicle only. After 4 hours, mice were humanely sacrificed (anesthetized with isoflurane followed by cervical dislocation), and tissues (liver, kidney, brain) removed and snap frozen in liquid nitrogen before processing. Tissues were homogenized, and soluble proteome isolated by ultracentrifugation (100 k×g, 45 minutes) and protein concentration adjusted to 1 mg/mL in DPBS. An aliquot (50 μL) was reacted with FP-Rh (2 μM final concentration) for 30 minutes at 25° C. Reactions were quenched with 16 μL 4×SDS-PAGE loading buffer (reducing), separated by SDS-PAGE, and visualized by in-gel fluorescent scanning. The percentage activity remaining was determined by measuring the integrated optical density of test compound bands relative to vehicle bands. Note: Due to the overlapping nature of LYPLA1 and LYPLA2 bands, the proteins were quantified together.
(§3) The in vivo inhibitory activity of Compound 1 was assessed. For this experiment, mice were administered test compound (0.5-50 mg/kg, i.p.) or vehicle only. After four hours mice were sacrificed and their tissues removed, homogenized, and the soluble fractions isolated and labeled with FP-Rh followed by SDS-PAGE and fluorescent detection of FP-labeled SHs (see FIG. 3B).
(§4) Compound 26, Compound 34, and Compound 1 were administered across a dose range of 1-40 mg/kg to C57BL6 mice by intraperitoneal injection, and, after 4 hours, animals were sacrificed and tissues harvested for analysis by gel-based ABPP using the FP-Rh probe and the Compound 39 probe.

PPT1 = biological target: T1, PPT1 (Mus musculus, UniProt O88531); experiment: Inhibition by gel-based competitive ABPP in vivo (Compound 39 probe)
T1 construct: from tissue; host or cells: central and peripheral tissues (e.g. brain, testis) of C57BL6 mice
T1 sequence (O88531 28-306): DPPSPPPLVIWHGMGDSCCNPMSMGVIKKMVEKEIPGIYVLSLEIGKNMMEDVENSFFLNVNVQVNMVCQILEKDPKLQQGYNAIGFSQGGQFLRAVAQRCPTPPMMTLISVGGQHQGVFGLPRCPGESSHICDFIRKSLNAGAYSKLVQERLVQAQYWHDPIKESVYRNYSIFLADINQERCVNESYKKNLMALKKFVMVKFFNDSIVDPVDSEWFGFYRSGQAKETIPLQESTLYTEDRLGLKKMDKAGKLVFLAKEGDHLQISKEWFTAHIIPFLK
Method: as §4

LYPLA1/2 = experiment: Inhibition by gel-based competitive ABPP in vivo (FP-Rh probe); design: species or system mouse
Method: as §1, §2, §3, §4

endogenous PPT1 = biological target: T2, endogenous PPT1 (Homo sapiens, UniProt P50897); experiment: PPT1 substrate assay, PC3 cells treated in situ; format: cell-based; conditions: 4 h in situ; for reduction in 4-MUBO hydrolysis activity versus DMSO: 500 nM inhibitor
T2 construct: endogenous in cells; host or cells: PC3
T2 sequence (P50897 28-306): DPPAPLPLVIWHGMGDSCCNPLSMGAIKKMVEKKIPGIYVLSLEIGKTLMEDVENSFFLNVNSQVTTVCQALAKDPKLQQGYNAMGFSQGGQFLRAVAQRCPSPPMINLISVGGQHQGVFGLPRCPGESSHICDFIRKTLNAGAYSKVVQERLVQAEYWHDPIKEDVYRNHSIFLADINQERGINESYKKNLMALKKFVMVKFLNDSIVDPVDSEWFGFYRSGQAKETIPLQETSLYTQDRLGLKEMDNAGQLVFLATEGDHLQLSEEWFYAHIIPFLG
Method: PPT1 activity was assessed in vitro using a substrate assay adapted from previous studies (van Diggelen et al., Molecular genetics and metabolism 66, 240-244, 1999). Lysates from HEK293T cells transfected with an empty vector, or human PPT1 under a CMV promoter were adjusted to 1 mg/ml in PBS (25 μl), and then combined 1:1 with Mcllvain's phosphate/citrate buffer containing 0.375% (v/v) Triton-X 100 and 15 mM DTT (pH 5.0). This sample was pre-treated with inhibitor or DMSO for 30 minutes at 37° C., and 10 μl (5 μg protein) was used in the substrate assay as follows: Samples were diluted in a black 96-well plate (half-area) with 20 μl McIlvain's phosphate/citrate buffer (pH 5.0) containing 0.375% TX-100 and 15 mM DTT, as well as 0.64 mM MU-6S-Palm-PD-Glc and 0.1 U sweet almond glucosidase (Sigma). The reactions were incubated at 37° C. for 1 hour, quenched with 120 μl sodium bicarbonate buffer (pH 10.0), and hydrolysis by 4-MU fluorescence measured by excitement at […] and emission intensity at […]. 16 μg protein was used for analysis of native PC3 cells.
(§5) In situ inhibitor treatments of human cell lines were performed as described previously (Hsu et al., J Med Chem 56, 8270-8279, 2012). Briefly, PC3 or transfected HEK293T cells were grown to confluency in serum-containing media (RPMI or DMEM, respectively). The culture media was then removed and replaced with fresh media containing DMSO or inhibitor at the desired concentration and incubated for 4 hours in a tissue culture incubator (37° C., 5% CO2). Cells were then washed with PBS, harvested, washed with PBS once more, and lysed with a probe sonicator.
Compound 26 was then tested to see if it inhibited PPT1 activity using a substrate assay. […] In this assay, PPT1 hydrolyzes the substrate's palmitoyl thioester bond, and exogenous sweet almond β-glucosidase deglycosylates and frees the fluorophore, 4-methylumbelliferone (4-MU), which is measured to assess PPT1 activity.

ABHD3 = biological target: T3, ABHD3 (Homo sapiens, UniProt Q8WU67); experiment: ABPP-SILAC, PC3 cells treated in situ; format: cell-based; conditions: 4 h in situ, FP-biotin
T3 construct: endogenous in cells; host or cells: PC3
Method: as §5
The activity and selectivity of dual ABHD3/4 and ABHD4-preferring inhibitors in PC3 cells by ABPP-SILAC was assessed. Isotopically heavy and light PC3 cells were treated in situ with inhibitor (Compound 37 (1 μM) or Compound 38 (0.5 μM)) or DMSO for 4 h and then lysed and processed for ABPP-SILAC analysis.

T3 sequence (Q8WU67 whole entry): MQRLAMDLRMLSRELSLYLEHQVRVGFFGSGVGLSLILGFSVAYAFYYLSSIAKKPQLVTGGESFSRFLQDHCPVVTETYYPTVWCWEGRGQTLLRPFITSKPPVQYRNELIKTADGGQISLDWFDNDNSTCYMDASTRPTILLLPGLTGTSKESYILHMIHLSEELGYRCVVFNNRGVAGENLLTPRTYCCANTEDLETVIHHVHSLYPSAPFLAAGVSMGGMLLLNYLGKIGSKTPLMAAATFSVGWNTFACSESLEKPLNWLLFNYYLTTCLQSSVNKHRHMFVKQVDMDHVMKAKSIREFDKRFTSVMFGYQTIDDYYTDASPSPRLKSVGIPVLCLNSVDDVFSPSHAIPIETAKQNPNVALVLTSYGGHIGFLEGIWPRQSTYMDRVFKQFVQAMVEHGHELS

Q: Which results are given for `O=C(ON1C(=O)C2CN(C(=O)N3CCOCC3)CCN2C1=O)N1CCC(CCc2ccc(Cl)cc2)CC1` (centres unmarked) [Compound 1, 7-(morpholine-4-carbonyl)-1,3-dioxohexahydroimidazo[1,5-a]pyrazin-2(3H)-yl 4-(4-chloro-phenethyl)piperidine-1-carboxylate]?
A: anti-target inhibition in vivo ([1]; 0.5-50 mg/kg i.p., any tissue, ABHD6 not visible): no significant anti-target inhibition; cross-reactivity with other SHs in vivo ([1]; 1-40 mg/kg i.p.): limited cross-reactivity with other SHs; mPPT1 (in vivo), % @ 10 mg/kg (testis) (PPT1; 10 mg/kg, testis, mouse): 100% @ 10 mg/kg; dose inhibiting PPT1 in vivo (PPT1; i.p., 4 h, Compound 39 probe): ≥ 10 mg/kg; blockade of LYPLA1 and LYPLA2 in vivo (LYPLA1/2; 5 mg/kg i.p., 4 h, FP-Rh probe): near-complete blockade of LYPLA1 and LYPLA2 in peripheral (e.g., liver, kidney), but not central (brain) tissues; mLYPLA1/2 (in vivo), % @ 5 mg/kg (liver and kidney) (LYPLA1/2; 5 mg/kg, liver and kidney, mouse): 100% @; inhibition of LYPLA1/2 in liver and kidney (LYPLA1/2; 0.5-50 mg/kg i.p., 4 h, liver and kidney): ~90%; inhibition of LYPLA1/2 in the brain (LYPLA1/2; highest dose 50 mg/kg i.p., 4 h, brain): ~75%

Q: Which results are given for `COc1ccc(N2CCN(C(=O)ON3C(=O)C4CN(CC5CCN(Cc6ccccc6)CC5)CCN4C3=O)CC2)cc1` (centres unmarked) [Compound 26, 7-((1-benzylpiperidin-4-yl)methyl)-1,3-dioxohexahydroimidazo[1,5-a]pyrazin-2(3H)-yl 4-(4-methoxyphenyl)piperazine-1-carboxylate]?
A: inhibition of other SHs in vivo ([1]; 1-40 mg/kg i.p., brain and testis, FP-Rh or Compound 39 probe): did not inhibit other SHs; mPPT1 (in vivo), % @ 5 mg/kg (testis) (PPT1; 5 mg/kg, testis, mouse): 100% @ 5 mg/kg; blockade of PPT1 in vivo (PPT1; 1-5 mg/kg i.p., 4 h, central and peripheral tissues): near-complete blockade; reduction in 4-MUBO hydrolysis activity versus DMSO (endogenous PPT1): substantial reductions; reduction in endogenous PPT1 activity (endogenous PPT1; 500 nM, MU-6S-Palm-βD-Glc substrate assay): 90%; mLYPLA1/2 (in vivo), % @ 40 mg/kg (testis) (LYPLA1/2; 40 mg/kg, testis, mouse): 0% @

Q: Which “reduction in 4-MUBO hydrolysis activity versus DMSO” value (endogenous PPT1) does the source give for `O=C(ON1C(=O)C2CN(Cc3ccc(Oc4ccccc4)cc3)CCN2C1=O)N1CCOCC1` (centres unmarked) [Compound 34, 1,3-dioxo-7-(4-phenoxybenzyl)hexahydroimidazo[1,5-a]pyrazin-2(3H)-yl morpholine-4-carboxylate] here?
A: not

Q: For `COc1ccc(N2CCN(C(=O)ON3C(=O)C4CN(Cc5ccc(Oc6ccccc6)cc5)CCN4C3=O)CC2)cc1` (centres unmarked) [Compound 37, 1,3-dioxo-7-(4-phenoxybenzyl)hexahydroimidazo[1,5-a]pyrazin-2(3H)-yl 4-(4-methoxyphenyl)piperazine-1-carboxylate], which inhibition at 1 µM (ABHD3; PC-3, 1 μM) is on record?
A: ~80%

Q: Which “inhibition of ABHD3 in PC3 cells” value (ABHD3; 0.5 μM) does the source give for `O=C(ON1C(=O)C2CN(Cc3ccc(Oc4ccccc4)cc3)CCN2C1=O)N1CCC(c2ccccc2)CC1` (centres unmarked) [Compound 38, 1,3-dioxo-7-(4-phenoxybenzyl)hexahydroimidazo[1,5-a]pyrazin-2(3H)-yl 4-phenylpiperidine-1-carboxylate] here?
A: inhibit both ABHD3 and ABHD4
